Earlier results, collected in patent US12569183B2 (University Of Maryland, Baltimore, priority 2018, dated 2026).

What was measured:
[1] = rapid IV infusions; hypotension, dyspnea, QT prolongation
[2] = administered twice daily, steady state on day 3
[3] = clinical trials; median baseline QTc 405 msec

CC(C)NCC(O)c1ccc(NS(C)(=O)=O)cc1 (stereo not drawn) [sotalol]
adverse events [1]: only mild to moderate adverse events | number of doses until steady-state exposures [2]: 4-5 doses | slope of the concentration QTc relationship [3]: 0.0158 ms/ng/mL
